Values of other authors in patent US20040198651A1, “Secreted proteins” (priority 2001, published 2004).

Key:
[1] = relative to progesterone
[2] = intranasal; relative to hydrocortisone

Molecule	pharmacological activity greater than progesterone [1]	anti-inflammatory and vasoconstrictive effects greater than those produced by hydrocortisone [2]
6α-methyl-17-hydroxyprogesterone [medroxyprogesterone]	about 15 times	–
C[C@H]1C[C@H]2[C@@H]3CCC4=CC(=O)C=C[C@]4(C)[C@@]3(Cl)[C@@H](O)C[C@]2(C)[C@@]1(O)C(=O)CO [beclomethasone]	–	5000 times
